In data set [1] the test system is Human immunodeficiency virus. Briefly: Antiviral activity against pseudo Human immunodeficiency virus infected in HEK293T cells after 2 days. The format is functional, organism-based. The note with it: Human immunodeficiency virus 1, HEK-293T, 48 h.
In data set [2] the test system is Human immunodeficiency virus. Briefly: Antiviral activity against Human immunodeficiency virus harboring integrase Q148K mutant infected in human HeLa cells expressing CD4 after 2 days by beta galactosidase assay relative to wild type HIV. It is filed as functional.
Data set [3] concerns Human immunodeficiency virus. As to the kind of experiment: Antiviral activity against pseudo Human immunodeficiency virus infected in HEK293T cells after 2 days in presence of human serum albumin. Conditions: Human immunodeficiency virus 1, HEK-293T, 48 h. The format is functional, organism-based.
Data set [4] in a line: Oral bioavailability in rat. It is filed as ADME, organism-based. The note with it: in vivo.
The nature of data set [5]: Clearance in iv dosed rat. It is filed as ADME, organism-based. Conditions: in vivo.
The subject of data set [6] is Human immunodeficiency virus. As to the kind of experiment: Ratio of IC50 for pseudo Human immunodeficiency virus to IC50 for pseudo Human immunodeficiency virus in presence of human serum albumin. The format is functional.

40 molecules from ChEMBL document CHEMBL2401737 (J Med Chem, 2013) can be followed below.

For the molecule `O=C(NCc1ccc(F)cc1F)c1cn2c(c(O)c1=O)C(=O)N1[C@@H](CO)CO[C@@H]1C2`, the IC50 in data set [1] is 10 nM; in data set [3], 37 nM. In data set [2], the “fold change (FC)” value came out at 12.
Regarding `C[C@H]1CCO[C@@H]2Cn3cc(C(=O)NCc4ccc(F)cc4F)c(=O)c(O)c3C(=O)N12`, the IC50 in data set [1] was 0.5 nM; in data set [3], 4 nM. For the same molecule, in data set [2], the “fold change (FC)” value was 2.2.
As to `C[C@H]1CCN2C(=O)c3c(O)c(=O)c(C(=O)NCc4ccc(F)cc4)cn3C[C@H]2O1`, the half-maximal inhibitory concentration (IC50) in data set [1] came to 1.3 nM; in data set [3], 3.3 nM.
As to `C[C@H]1CO[C@@H]2Cn3cc(C(=O)NCc4ccc(F)cc4F)c(=O)c(O)c3C(=O)N2C1`, the IC50 in data set [1] came out at 0.5 nM; in data set [3], 5.2 nM. The “fold change (FC)” value in data set [2] is listed as 5.7.
With `CC(C)[C@H]1CO[C@@H]2Cn3cc(C(=O)NCc4ccc(F)cc4F)c(=O)c(O)c3C(=O)N12`, the figures for the IC50 in data set [1] and in data set [3] were 4.8 nM and 300 nM, respectively. For the same molecule, the “fold change (FC)” value in data set [2] is listed as 100.
As for `CC(C)[C@@H]1CO[C@H]2Cn3cc(C(=O)NCc4ccc(F)cc4F)c(=O)c(O)c3C(=O)N21`, the 50% inhibitory concentration (IC50) in data set [1] was 4 nM; in data set [3], 16 nM. For the same molecule, the “fold change (FC)” value in data set [2] came out at 73.
In the case of `C[C@H]1CO[C@@H]2Cn3cc(C(=O)NCc4ccc(F)cc4)c(=O)c(O)c3C(=O)N12`, the half-maximal inhibitory concentration (IC50) was 2.1 nM in data set [1] and 50 nM in data set [3]. In addition, in data set [2], the “fold change (FC)” value was determined as 13.
With `O=C(NCc1ccc(F)cc1)c1cn2c(c(O)c1=O)C(=O)N1CCCOC1C2` (racemic), the IC50 in data set [1] was determined as 1.9 nM; in data set [3], 20 nM. For the same molecule, in data set [2], the “fold change (FC)” value worked out at 2.8. This molecule also came in with a bioavailability in data set [4] of 51%. In data set [5], this molecule had a clearance of 0.1 mL/min/kg.
Regarding `CC[C@@H]1CO[C@H]2Cn3cc(C(=O)NCc4ccc(F)cc4F)c(=O)c(O)c3C(=O)N12`, the results for the IC50 in data set [1] and in data set [3] were 8.5 nM and 35 nM, respectively. In addition, the “fold change (FC)” value in data set [2] was found to be 63.
With `CC[C@@H]1CCN2C(=O)c3c(O)c(=O)c(C(=O)NCc4ccc(F)cc4F)cn3C[C@@H]2O1`, the IC50 is 0.7 nM in data set [1] and 9.4 nM in data set [3]. Also, in data set [2], the “fold change (FC)” value is listed as 4.6.
In the case of `O=C(NCc1ccc(F)cc1F)c1cn2c(c(O)c1=O)C(=O)N1CC[C@@H](c3ccccc3)O[C@H]1C2`, the values for the IC50 in data set [1] and in data set [3] were 5.6 nM and 50 nM, respectively. The “fold change (FC)” value in data set [2] stood at 8.5.
For the molecule `O=C(NCc1ccc(F)cc1)c1cn2c(c(O)c1=O)C(=O)N1CCCO[C@@H]1C2`, the values for the half-maximal inhibitory concentration (IC50) in data set [1] and in data set [3] were 2.2 nM and 9.4 nM, respectively. Moreover, the “fold change (FC)” value in data set [2] came out at 11. The same molecule had a bioavailability in data set [4] of 52%. In data set [5], this molecule gave a clearance of 0.17 mL/min/kg.
As for `O=C(NCc1ccc(F)cc1F)c1cn2c(c(O)c1=O)C(=O)N1[C@H](Cc3ccccc3)CO[C@H]1C2`, the IC50 is 0.6 nM in data set [1] and 4.5 nM in data set [3]. Moreover, the “fold change (FC)” value in data set [2] turned out to be 19. Further, in data set [6], the “Ratio IC50” value is listed as greater than 7.
For `CC(C)C[C@@H]1CO[C@H]2Cn3cc(C(=O)NCc4ccc(F)cc4F)c(=O)c(O)c3C(=O)N12`, the values for the IC50 in data set [1] and in data set [3] were 3.2 nM and 16 nM, respectively. In data set [2], the “fold change (FC)” value came to 51.
For `O=C(NCc1ccc(F)cc1F)c1cn2c(c(O)c1=O)C(=O)N1[C@@H](c3ccccc3)CO[C@@H]1C2`, the concentration for half-maximal inhibition (IC50) in data set [1] came out at 72 nM; in data set [3], 620 nM. Besides, the “fold change (FC)” value in data set [2] was 44.
Taken in the same sequence, the figures for `CS(=O)(=O)CC[C@H]1CO[C@@H]2Cn3cc(C(=O)NCc4ccc(F)cc4F)c(=O)c(O)c3C(=O)N12` were 430 nM, 370 nM and greater than 10.
As for `COC[C@H]1CCN2C(=O)c3c(O)c(=O)c(C(=O)NCc4ccc(F)cc4F)cn3C[C@H]2O1`, the half-inhibitory concentration (IC50) in data set [1] turned out to be 0.4 nM; in data set [3], 0.9 nM. The “fold change (FC)” value in data set [2] amounted to 3.5. The “Ratio IC50” value in data set [6] worked out at 2.
As to `CC[C@H]1CO[C@@H]2Cn3cc(C(=O)NCc4ccc(F)cc4F)c(=O)c(O)c3C(=O)N12`, the 50% inhibitory concentration (IC50) turned out to be 0.9 nM in data set [1] and 63 nM in data set [3].
In the case of `CC1(C)CO[C@H]2Cn3cc(C(=O)NCc4ccc(F)cc4)c(=O)c(O)c3C(=O)N2C1`, the IC50 was 1.1 nM in data set [1] and 440 nM in data set [3]. The “fold change (FC)” value in data set [2] came out at 3.6.
On to `O=C(NCc1ccc(F)cc1F)c1cn2c(c(O)c1=O)C(=O)N1[C@@H](Cc3ccc(O)cc3)CO[C@@H]1C2`, for which the 50% inhibitory concentration (IC50) in data set [1] stood at 2.1 nM; in data set [3] it was 22 nM. Besides, the “fold change (FC)” value in data set [2] was determined as 1.6.
Regarding `C[C@@H]1CCN2C(=O)c3c(O)c(=O)c(C(=O)NCc4ccc(F)cc4F)cn3C[C@@H]2O1`, the half-inhibitory concentration (IC50) in data set [1] amounted to 0.9 nM; in data set [3] it was 7 nM. The “fold change (FC)” value in data set [2] is on record as 2.1.
For the molecule `O=C(NCc1ccc(F)cc1F)c1cn2c(c(O)c1=O)C(=O)N1[C@@H](CC3CCCCC3)CO[C@@H]1C2`, the half-inhibitory concentration (IC50) turned out to be 330 nM in data set [1] and 3100 nM in data set [3]. The “fold change (FC)” value in data set [2] is greater than 15.
Regarding `C[C@H]1CO[C@@H]2Cn3cc(C(=O)NCc4ccc(F)cc4)c(=O)c(O)c3C(=O)N2C1`, the IC50 in data set [1] was 0.7 nM; in data set [3] it was 5.6 nM. In data set [2], the “fold change (FC)” value worked out at 9.9.
For the molecule `C[C@H]1CCN2C(=O)c3c(O)c(=O)c(C(=O)NCc4ccc(F)cc4F)cn3C[C@H]2O1`, the 50% inhibitory concentration (IC50) stood at 0.5 nM in data set [1] and 1.5 nM in data set [3]. Further, the “fold change (FC)” value in data set [2] is listed as 2.8.
In the case of `C[C@@H]1CO[C@H]2Cn3cc(C(=O)NCc4ccc(F)cc4F)c(=O)c(O)c3C(=O)N12`, the IC50 turned out to be 5.4 nM in data set [1] and 39 nM in data set [3]. Moreover, the “fold change (FC)” value in data set [2] is recorded as 35. In addition, the “Ratio IC50” value in data set [6] was greater than 7.
Regarding `CSCC[C@H]1CO[C@@H]2Cn3cc(C(=O)NCc4ccc(F)cc4F)c(=O)c(O)c3C(=O)N12`, the IC50 in data set [1] came to 3.1 nM; in data set [3] it was 18 nM.
In the case of `Cc1nnc(C(=O)NC(C)(C)c2nc(C(=O)NCc3ccc(F)cc3)c([O-])c(=O)n2C)o1.[K+]` [RALTEGRAVIR POTASSIUM], the IC50 in data set [1] worked out at 2 nM; in data set [3], 7.1 nM. For the same molecule, the “fold change (FC)” value in data set [2] is 79. In addition, in data set [6], the “Ratio IC50” value amounted to 77.
On to `CC(C)(C)[C@H]1CO[C@@H]2Cn3cc(C(=O)NCc4ccc(F)cc4)c(=O)c(O)c3C(=O)N21`, for which the half-maximal inhibitory concentration (IC50) in data set [1] is 4 nM; in data set [3] it was 35 nM. Moreover, in data set [2], the “fold change (FC)” value was 74.
For the molecule `O=C(NCc1ccc(F)cc1F)c1cn2c(c(O)c1=O)C(=O)N1[C@@H](Cc3c[nH]c4ccccc34)CO[C@@H]1C2`, the IC50 in data set [1] came out at 1.6 nM; in data set [3], 71 nM. Also, the “fold change (FC)” value in data set [2] was 22.
For `CC1(C)CO[C@@H]2Cn3cc(C(=O)NCc4ccc(F)cc4)c(=O)c(O)c3C(=O)N2C1` the same measures were 2 nM, 7.9 nM and 8.1.
Taken in the same sequence, the figures for `CCCC[C@H]1CO[C@@H]2Cn3cc(C(=O)NCc4ccc(F)cc4F)c(=O)c(O)c3C(=O)N12` were 87 nM, 1800 nM and greater than 57.
Taken in the same sequence, the figures for `CC(C)[C@@H]1CCN2C(=O)c3c(O)c(=O)c(C(=O)NCc4ccc(F)cc4F)cn3C[C@@H]2O1` were 2 nM, 20 nM and 8.1.
In the case of `CC[C@H](C)[C@H]1CO[C@@H]2Cn3cc(C(=O)NCc4ccc(F)cc4F)c(=O)c(O)c3C(=O)N12`, the IC50 in data set [1] came out at 20 nM; in data set [3], 200 nM. Further, the “fold change (FC)” value in data set [2] came out at 200.
Taken in the same sequence, the figures for `O=C(NCc1ccc(F)cc1F)c1cn2c(c(O)c1=O)C(=O)N1[C@@H](Cc3ccccc3)CO[C@@H]1C2` were 13 nM, 380 nM and 13.
Turning to `O=C(NCc1ccc(F)cc1)c1cn2c(c(O)c1=O)C(=O)N1CCCO[C@H]1C2`, the IC50 was determined as 1.9 nM in data set [1] and 81 nM in data set [3]. Moreover, the “fold change (FC)” value in data set [2] was found to be 2.4. Besides, in data set [6], the “Ratio IC50” value is 43. The molecule also had a bioavailability in data set [4] of 79%. For the same molecule, the clearance in data set [5] is 0.1 mL/min/kg.
`CC[C@H]1CCN2C(=O)c3c(O)c(=O)c(C(=O)NCc4ccc(F)cc4F)cn3C[C@H]2O1`: the 50% inhibitory concentration (IC50) was found to be 0.5 nM in data set [1] and 3.1 nM in data set [3]. For the same molecule, the “fold change (FC)” value in data set [2] is given as 2.2.
For `C[C@@H]1CO[C@H]2Cn3cc(C(=O)NCc4ccc(F)cc4)c(=O)c(O)c3C(=O)N2C1` the same measures were 0.8 nM, 210 nM and 36.
For the molecule `CC(C)[C@H]1CCN2C(=O)c3c(O)c(=O)c(C(=O)NCc4ccc(F)cc4F)cn3C[C@H]2O1`, the IC50 in data set [1] turned out to be 0.7 nM; in data set [3], 4.1 nM. In data set [2], the “fold change (FC)” value is 1.9.
On to `COC[C@@H]1CCN2C(=O)c3c(O)c(=O)c(C(=O)NCc4ccc(F)cc4F)cn3C[C@@H]2O1`, for which the figures for the half-maximal inhibitory concentration (IC50) in data set [1] and in data set [3] were 1.4 nM and 2.3 nM, respectively. In addition, in data set [2], the “fold change (FC)” value turned out to be 5. The “Ratio IC50” value in data set [6] was 2.
`CC(C)(C)[C@H]1CO[C@@H]2Cn3cc(C(=O)NCc4ccc(F)cc4F)c(=O)c(O)c3C(=O)N21`: the values for the half-inhibitory concentration (IC50) in data set [1] and in data set [3] were 20 nM and 130 nM, respectively. Moreover, in data set [2], the “fold change (FC)” value came out at 130.

As a reminder, the IC50 is the concentration that gives 50% inhibition. What is called bioavailability is the share of a dose that reaches the circulation, judged against a reference dose that is usually intravenous. The term clearance denotes the rate of elimination divided by the concentration. High values mean a high capacity for elimination, low ones a low capacity for elimination.
